We go through one molecule from patent US20150099645A1, “MEANS AND METHODS FOR DIAGNOSTICS AND TH[…] DISEASES” (priority 2012, published 2015).

Test [1] concerns C57Bl/6 and Balb/c splenocytes. In words: Mixed lymphocyte reaction, XTT proliferation assay. The format is cell-based, mouse. The following applies: for proliferation level: versus control (0 mM). The protocol: Splenocytes were harvested from untreated Balb/c and C57BL/6 mice. C57BL/6 cells were incubated in a flat bottom 96 well plate for 96 h with either irradiated (1500 rads) or not irradiated Balb/c cells as indicated, at the indicated concentrations. XTT reagent for proliferation assay was added 24 h before reading. Plate was read at 620 nm.
Splenocytes were collected from spleens of C57Bl/6 and Balb/c mice and cultured ex-vivo and assayed for proliferation by XTT (tetrazolium salt). The C57Bl/6 and Balb/c cells were cultured ex-vivo together to mimic a GVHD reaction. The cells were cultured in 3 groups, having different cell concentrations: • 2×2: 2×10̂5 C57Bl/6 and 2×10̂5 balb/c cells • 1×1: 1×10̂5 C57Bl/6 and 1×10̂5 balb/c cells • 2×*2: 2×10̂5 C57Bl/6 and 2×10̂5 irradiated balb/c cells
In order to test the effect of GSK-3β activation state on cell proliferation, Lithium Chloride (a known inhibitor of GSK-3β) was added at different concentrations. […] Furthermore, it can be seen that the effect of LiCl depends on the confluence (concentration) of cells.
(In general: Formazan colour is commonly taken as a measure of viable cells.)

The next test relates to T cells (CD3+). In words: GVHD mouse model, LiCl treatment of allogeneic mice, CD3+ T cells of spleen counted by flow cytometry. In kind it is in vivo. Particulars: 2.0 mg/kg LiCl once a day, day 3 post-transplant. On the procedure: Mice are divided into 3 groups (Untreated, Syngeneic and Allogeneic) per time point with 6-12 mice per group. The untreated group mice (without irradiation) were injected with plain medium. The syngeneic group irradiated (600 rads) Balb/c mice were injected with splenocytes (30×10̂6) from matched donor Balb/c mice. The allogeneic group irradiated (600 rads) Balb/c mice were injected with splenocytes (30×10̂6) from unmatched donor C57Bl/6 mice. An additional 2-3 mice in each group were injected with 2.0 mg/kg LiCl (dissolved 1:2 LiCl:PBS), once a day from day 1 to day 5 post-transplant, sacrificed at days 3 and 5.
Total T cells (CD3+) were collected from spleens of mice of the 3 groups of the GVHD model as described above. Cells were stained for CD3 and counted by Flow Cytometry.
In order to explore the effect of GSK-3β activation state on T-cell proliferation, the GVHD model mice were treated with Lithium chloride (LiCl). Lithium chloride (LiCl) is known to affect GSK-3β activation state by regulating its phosphorylation state. Lithium chloride (LiCl) treatments were given to a separate group of allogeneic mice.
On the technique in general: A flow cytometer gives signals particle by particle.

Take `[Cl-].[Li+]` [LiCl, Lithium chloride]: the proliferation level entry in test [1] (12.5 mM LiCl, 2×2 group (2×10^5 C57Bl/6 and 2×10^5 balb/c cells)) was “significantly lower”; in test [1] (25 mM LiCl, 1×1 group (1×10^5 C57Bl/6 and 1×10^5 balb/c cells)), “significantly higher”; in test [1] (25 mM LiCl, 2×2 group), “significantly higher”. The effect on proliferation result in test [1] (doses smaller than 12.5 mM) was “no apparent effect”. Further, in the test with T cells (CD3+), the “amount of T-cells” value is given as “increased”.
